Test results published in patent publication US20240173432A1, “Compositions and Methods for Treatment of Myotonic Dystrophy Type 1 with CRISPR/SluCas9” (Vertex Pharmaceuticals Incorporated, priority 2021, published 2024).

Assays:
[1] = test system: CUG foci in primary DM1 patient myoblasts; experiment: Dual-cut screening: FISH staining of CUG RNA foci; assay type: cell-based, human; details: sgRNA pair, primary DM1 patient myoblasts; for % of CUG foci free nuclei (DNA-PKi): 3 μM DNA-PKi Compound 6 for 48 hours; for % of CUG foci free nuclei (Vehicle): vehicle (DMSO)
Procedure, shortened: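 SluCas9 RNPs (protein:sgRNA 1:3; 20 pmol SluCas9 + 60 pmol sgRNA per guide, paired 1:1) nucleofected into primary DM1 patient myoblasts, then DMSO or 3 μM DNA-PKi Compound 6 for 48 h. At 72 h post-nucleofection cells fixed, FISH-stained with Cy3-PNA(CAG)5 probe plus anti-MBNL1 and Hoechst; % CUG foci-free nuclei by high-content confocal imaging.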

[2] = test system: CTG repeat in the 3′ UTR of human DMPK gene; experiment: Dual-cut screening: CTG repeat excision efficiency by loss-of-signal ddPCR; assay type: cell-based; details: sgRNA pair, primary DM1 patient myoblasts; for Excision efficiency (by ddPCR): 3 μM DNA-PKi Compound 6 for 48 hours; for Excision efficiency by ddPCR (Vehicle): vehicle (DMSO)
Procedure, shortened: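 Upstream and downstream SluCas9 RNPs (20 pmol protein, 60 pmol sgRNA each) mixed 1:1 and nucleofected into primary DM1 patient myoblasts, then treated 48 h with DMSO or 3 μM DNA-PKi Compound 6. Genomic DNA taken 72 h post-nucleofection; excision read as loss of target signal by ddPCR versus a DMPK exon 1 reference.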

Substance	% of CUG foci free nuclei (DNA-PKi) [1]	% of CUG foci free nuclei (Vehicle) [1]	Excision efficiency (by ddPCR) [2]	Excision efficiency by ddPCR (Vehicle) [2]
SluU21 + SluD32 (guide 1 GCTCGGAGCGGTTGTGAACTGG; guide 2 CTTGTGCATGACGCCCTGCTCT; guide RNA; listed as DNA, chemistry not fully specified)	88.76%	52.71%	70.09	41.94
SluU63 + SluD100 (guide 1 GGGGCTCGAAGGGTCCTTGTAG; guide 2 GTCCAGAGCTTTGGGCAGATGG; guide RNA; listed as DNA, chemistry not fully specified)	89.97%	73.15%	91.5	58.24
SluU08 + SluD32 (guide 1 GCCCCGTTGGAAGACTGAGTGC; guide 2 CTTGTGCATGACGCCCTGCTCT; guide RNA; listed as DNA, chemistry not fully specified)	90.91%	74.1%	73.0215	50.87
SluU64 + SluD32 (guide 1 GGGCTCGAAGGGTCCTTGTAGC; guide 2 CTTGTGCATGACGCCCTGCTCT; guide RNA; listed as DNA, chemistry not fully specified)	89.99%	77.6%	85.56	60.75
SluU64 + SluD73 (guide 1 GGGCTCGAAGGGTCCTTGTAGC; guide 2 CCAAAACGTGGATTGGGGTTGT; guide RNA; listed as DNA, chemistry not fully specified)	91.02%	70.19%	74.77	50.69
SluU06 + SluD100 (guide 1 TGTCTTCGACTCCGGGGCCCCG; guide 2 GTCCAGAGCTTTGGGCAGATGG; guide RNA; listed as DNA, chemistry not fully specified)	87.37%	64.95%	65.68	40.89
SluU64 + SluD56 (guide 1 GGGCTCGAAGGGTCCTTGTAGC; guide 2 CCAGCCGGCTCCGCCCGCTTCG; guide RNA; listed as DNA, chemistry not fully specified)	87.6%	60.36%	67.76	42.14
SluU64 + SluD34 (guide 1 GGGCTCGAAGGGTCCTTGTAGC; guide 2 CGCGCCAGACGCTCCCCAGAGC; guide RNA; listed as DNA, chemistry not fully specified)	91.45%	83.68%	79.91	76.35
SluU63 + SluD73 (guide 1 GGGGCTCGAAGGGTCCTTGTAG; guide 2 CCAAAACGTGGATTGGGGTTGT; guide RNA; listed as DNA, chemistry not fully specified)	90.58%	70.03%	95.51	63.27
SluU63 + SluD32 (guide 1 GGGGCTCGAAGGGTCCTTGTAG; guide 2 CTTGTGCATGACGCCCTGCTCT; guide RNA; listed as DNA, chemistry not fully specified)	89.04%	75.26%	94.81	60.75
SluU10 + SluD32 (guide 1 CCCGTTGGAAGACTGAGTGCCC; guide 2 CTTGTGCATGACGCCCTGCTCT; guide RNA; listed as DNA, chemistry not fully specified)	90.08%	77.29%	72.52	48.62
